Consider 15 compounds from US11655216B2 (priority 2016, dated 2023).

The target of assay [1] is T1, glutathione-S-transferase (GST) tagged LXRbeta LBD (ligand binding domain) (Homo sapiens, UniProt P55055).
T1 construct: purchased Invitrogen pv4658
T1 sequence (P55055 222-460 limits assumed): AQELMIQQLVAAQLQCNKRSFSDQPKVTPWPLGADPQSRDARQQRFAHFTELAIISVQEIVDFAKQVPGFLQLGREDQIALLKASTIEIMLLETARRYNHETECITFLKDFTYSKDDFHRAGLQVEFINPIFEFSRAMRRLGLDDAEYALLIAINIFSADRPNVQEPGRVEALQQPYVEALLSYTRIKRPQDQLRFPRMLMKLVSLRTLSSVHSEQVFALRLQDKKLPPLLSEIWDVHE
Kind of assay: LanthaScreen TR-FRET Liver X Receptor Coactivator Assay, LXR beta. Type of assay: biochemical. The following applies: for EC50: LXR beta IP, potency (Inflection Point), compound-induced co-activator recruitment, TR-FRET; for Emax: read-out: LXR beta actiivty at max dose, efficacy (% Emax) in relation to reference dual agonist T0901317; for LXR beta actiivty at max dose: efficacy (% Emax) in relation to reference dual agonist T0901317. The method in brief: (§1)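 TR-FRET coactivator recruitment read-out: compounds first received either LBD, followed by a mix of terbium-labelled anti-GST antibody and fluorescein coactivator peptide. Signal measured by time-resolved FRET once plates had incubated at room temperature.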
(Time-resolved FRET reads energy transfer from a long-lived donor to a nearby acceptor.)

In assay [2] the target is T2, glutathione-S-transferase (GST) tagged LXRalpha LBD (ligand binding domain) (Homo sapiens, UniProt Q13133).
T2 construct: purchased Invitrogen pv4655
T2 sequence (Q13133 209-447 limits assumed): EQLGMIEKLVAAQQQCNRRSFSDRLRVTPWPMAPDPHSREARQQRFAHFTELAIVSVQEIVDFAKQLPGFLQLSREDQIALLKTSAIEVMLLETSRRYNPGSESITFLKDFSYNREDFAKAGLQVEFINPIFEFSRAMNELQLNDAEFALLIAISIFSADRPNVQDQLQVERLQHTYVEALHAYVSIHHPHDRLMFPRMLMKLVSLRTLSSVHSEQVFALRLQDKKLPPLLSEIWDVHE
Description: biochemical. In a few lines: as §1

The mark [3] stands for this setting: LXR alpha IP, potency (Inflection Point), compound-induced co-activator recruitment, TR-FRET.
The mark [4] stands for this setting: read-out: LXR alpha actiivty at max dose, efficacy (% Emax) in relation to reference dual agonist T0901317.
Where [5] appears, read: efficacy (% Emax) in relation to reference dual agonist T0901317, read-out: LXR alpha actiivty at max dose.
Where [6] appears, read: potency (Inflection Point), compound-induced co-activator recruitment, TR-FRET.
Setting [7] is: potency (Inflection Point), compound-induced co-activator recruitment, TR-FRET, read-out: LXR alpha IP.
Setting [8] is: efficacy (% Emax) in relation to reference dual agonist T0901317.

Where two headings read alike, the source gives them in different places.

Turning to `CNC(=O)c1ccc(OC[C@@H](C)CCC2CCN(C(=O)[C@@](O)(c3cccc(OC)c3)C(F)(F)F)CC2)cc1Cl` (single isomer, unassigned) [Example 23-4, 2-chloro-N-methyl-4-((S or R)-2-methyl-4-(1-((S or trifluoro-2-hydroxy-2-(3-methoxyphenyl)propanoyl)piperidin-4-yl)butoxy)benzamide], the EC50 in assay [1] amounted to 0.06 µM; in assay [2] (setting [3]), 0.717 µM. The Emax in assay [1] came out at 53%; in assay [2] (setting [4]), 9%.

In the case of `COc1cccc([C@@](O)(C(=O)N2CCC(CC[C@H](C)COc3ccc(C(N)=O)c(Cl)c3)CC2)C(F)(F)F)c1` (single isomer, unassigned) [Example 24-1, 2-chloro-4-((R or S)-2-methyl-4-(1-((S or R)-3,3,3-trifluoro-2-hydroxy-2-(3-methoxyphenyl)propanoyl)piperidin-4-yl)butoxy)benzamide], in assay [1], the EC50 amounted to 0.033 µM and the Emax came out at 54%. The Emax in assay [2] (setting [5]) was determined as 14%. For the same compound, the “LXR alpha IP” value in assay [2] (setting [6]) is listed as “No IP”.

In the case of `C[C@H](CCCC1CCN(C(=O)[C@](O)(c2ccccc2)C(F)(F)F)CC1)Oc1ccc(C(=O)N(C)C)c(Cl)c1` (single isomer, unassigned) [Example 25-1, 2-chloro-N,N-dimethyl-4-((R or S)-5-(1-((R or S)-3,3,3-trifluoro-2-hydroxy-2-phenylpropanoyl)piperidin-4-yl)pentan-2-yloxy)benzamide], the EC50 in assay [1] turned out to be 0.101 µM; in assay [2] (setting [7]), 1.16 µM. Further, the values for the Emax in assay [1] and in assay [2] (setting [5]) were 91% and 29%, respectively.

For the compound `COc1cccc([C@](O)(C(=O)N2CCC(CCCC(C)Oc3ccc(C(=O)N(C)C)c(Cl)c3)CC2)C(F)(F)F)c1` (single isomer, unassigned) [Example 25-2, 2-chloro-N,N-dimethyl-4-((R or S)-5-(1-((S or R)-3,3,3-trifluoro-2-hydroxy-2-(3-methoxyphenyl)propanoyl)piperidin-4-yl)pentan-2-yloxy)benzamide], the EC50 in assay [1] amounted to 0.098 µM; in assay [2] (setting [3]), 1.36 µM. The Emax in assay [1] was 84%; in assay [2] (setting [4]), 12%.

For the compound `COc1cccc(C(O)(C(=O)N2CCC(C(C)CCCOc3ccc(C(=O)N(C)C)c(Cl)c3)CC2)C(F)(F)F)c1` (single isomer, unassigned) [Example 26-1, 2-chloro-N,N-dimethyl-4-((R or S)-4-(1-((R or S)-3,3,3-trifluoro-2-hydroxy-2-(3-methoxyphenyl)propanoyl)piperidin-4-yl)pentyloxy)benzamide], the results for the EC50 in assay [1] and in assay [2] (setting [7]) were 0.008 µM and 0.236 µM, respectively. Moreover, the figures for the Emax in assay [1] and in assay [2] (setting [5]) were 65% and 12%, respectively.

As for `CC(CCCOc1ccc(C(=O)N(C)C)c(Cl)c1)C1CCN(C(=O)C(O)(c2ccccc2)C(F)(F)F)CC1` (single isomer, unassigned) [Example 26-2, 2-chloro-N,N-dimethyl-4-((R or S)-4-(1-((R or S)-3,3,3-trifluoro-2-hydroxy-2-phenylpropanoyl)piperidin-4-yl)pentyloxy)benzamide], in assay [1], the EC50 worked out at 0.006 µM and the “LXR beta actiivty at max dose” value amounted to 71%. Moreover, the EC50 in assay [2] (setting [3]) was found to be 0.103 µM. The Emax in assay [2] (setting [4]) came out at 41%.

`CC(CCCOc1ccc(C(=O)N(C)C)c(Cl)c1)C1CCN(C(=O)C(O)(c2ccccc2)C(F)(F)F)CC1` (single isomer, unassigned) [Example 26-3, 2-chloro-N,N-dimethyl-4-((S or R)-4-(1-((R or S)-3,3,3-trifluoro-2-hydroxy-2-phenylpropanoyl)piperidin-4-yl)pentyloxy)benzamide]: the values for the EC50 in assay [1] and in assay [2] (setting [3]) were 0.006 µM and 0.125 µM, respectively. Besides, the “LXR beta actiivty at max dose” value in assay [1] turned out to be 77%. In addition, in assay [2] (setting [8]), the “LXR alpha actiivty at max dose” value is 48%.

Regarding `CC(CCCOc1ccc(C(=O)N(C)C)c(Cl)c1)C1CCN(C(=O)C(O)(c2ccccc2)C(F)(F)F)CC1` (single isomer, unassigned) [Example 26-4, 2-chloro-N,N-dimethyl-4-((S or R)-4-(1-((S or R)-3,3,3-trifluoro-2-hydroxy-2-phenylpropanoyl)piperidin-4-yl)pentyloxy)benzamide], the EC50 was 0.041 µM in assay [1] and 0.669 µM in assay [2] (setting [3]). Also, in assay [1], the “LXR beta actiivty at max dose” value was 114%. Besides, the “LXR alpha actiivty at max dose” value in assay [2] (setting [8]) is reported as 35%.

For the compound `COc1cccc([C@@](O)(C(=O)N2CCC(C[C@@H](C)CCOc3ccc(C(=O)N(C)C)c(Cl)c3)CC2)C(F)(F)F)c1` (single isomer, unassigned) [Example 27-1, 2-chloro-N,N-dimethyl-4-((R or S)-3-methyl-4-(1-((R or S)-3,3,3-trifluoro-2-hydroxy-2-(3-methoxyphenyl)propanoyl)piperidin-4-yl)butoxy)benzamide], the EC50 in assay [1] is 0.005 µM; in assay [2] (setting [7]), 0.074 µM. Moreover, the Emax is 70% in assay [1] and 23% in assay [2] (setting [5]).

The compound `COc1cccc([C@@](O)(C(=O)N2CCC(CC(C)CC(F)(F)Oc3ccc(C(=O)N(C)C)c(Cl)c3)CC2)C(F)(F)F)c1` (single isomer, unassigned) [Example 28-1, 2-chloro-4-((R or S)-1,1-difluoro-3-methyl-4-(1-((R or S)-3,3,3-trifluoro-2-hydroxy-2-(3-methoxyphenyl)propanoyl)piperidin-4-yl)butoxy)-N,N-dimethylbenzamide] displayed an EC50 in assay [1] of 0.065 µM. Further, the Emax in assay [1] turned out to be 62%; in assay [2] (setting [4]), 0%. Also, in assay [2] (setting [6]), the “LXR alpha IP” value is reported as “No IP”.

`CN(C)C(=O)c1ccc(OCC(C)(C)CCC2CCN(C(=O)C(O)(c3ccccc3)C(F)(F)F)CC2)cc1Cl` (single isomer, unassigned) [Example 29-1, (R or S)-2-chloro-4-(2,2-dimethyl-4-(1-(3,3,3-trifluoro-2-hydroxy-2-phenylpropanoyl)piperidin-4-yl)butoxy)-N,N-dimethylbenzamide]: the EC50 in assay [1] is 0.173 µM; in assay [2] (setting [3]), 0.911 µM. In addition, the values for the Emax in assay [1] and in assay [2] (setting [4]) were 48% and 27%, respectively.

The compound `COc1cccc(C(O)(C(=O)N2CCC(CC(C)CC(C)Oc3ccc(C(=O)N(C)C)c(Cl)c3)CC2)C(F)(F)F)c1` (single isomer, unassigned) [Example 30-1, 2-chloro-N,N-dimethyl-4-(4-methyl-5-(1-((R or S)-3,3,3-trifluoro-2-hydroxy-2-(3-methoxyphenyl)propanoyl)piperidin-4-yl)pentan-2-yloxy)benzamide] gave an EC50 in assay [1] of 0.099 µM. For the same compound, the values for the Emax in assay [1] and in assay [2] (read-out: LXR alpha actiivty at max dose) were 84% and 8%, respectively. Also, the “LXR alpha IP” value in assay [2] is “No IP”.

In the case of `CC(COc1ccc(C(=O)N(C)C)c(Cl)c1)CC(C)C1CCN(C(=O)C(O)(c2ccccc2)C(F)(F)F)CC1` (single isomer, unassigned) [Example 31-1, 2-chloro-N,N-dimethyl-4-(2-methyl-4-(1-((R or S)-3,3,3-trifluoro-2-hydroxy-2-phenylpropanoyl)piperidin-4-yl)pentyloxy)benzamide], the EC50 in assay [1] came out at 0.025 µM; in assay [2] (setting [3]) it was 0.284 µM. Moreover, the Emax in assay [1] worked out at 56%; in assay [2] (setting [4]), 27%.

In the case of `COc1cccc(C(O)(C(=O)N2CCC(C(C)CC(C)COc3ccc(C(=O)N(C)C)c(Cl)c3)CC2)C(F)(F)F)c1` (single isomer, unassigned) [Example 31-2, 2-chloro-N,N-dimethyl-4-(2-methyl-4-(1-((R or S)-3,3,3-trifluoro-2-hydroxy-2-(3-methoxyphenyl)propanoyl)piperidin-4-yl)pentyloxy)benzamide], in assay [1], the EC50 turned out to be 0.019 µM and the Emax was found to be 38%. In assay [2] (setting [6]), the “LXR alpha IP” value is on record as “No IP”. Moreover, in assay [2] (setting [4]), the Emax is 3%.

On to `CC(C)C(O)(C(=O)N1CCC(C2CC2COc2ccc(C(=O)N(C)C)c(Cl)c2)CC1)C(F)(F)F` (single isomer, unassigned) [Example 32-1, 2-chloro-4-(((1R,2S or 1S,2R)-2-(1-((S or R)-2-hydroxy-3-methyl-2-(trifluoromethyl)butanoyl)piperidin-4-yl)cyclopropyl)methoxy)-N,N-dimethylbenzamide], for which, in assay [1], the EC50 was found to be 0.319 µM and the Emax was determined as 82%. Also, in assay [2] (setting [8]), the “LXR alpha actiivty at max dose” value is given as 0%. In addition, in assay [2] (setting [6]), the “LXR alpha IP” value was “No IP”.
